Experimental data taken from publication PMC9403545, “Structure based design of effective HtpG-derived vaccine antigens against M. tuberculosis” (Frontiers in Molecular Biosciences, 2022).

Biological target: T1, HtpGMtb (Mycobacterium tuberculosis, UniProt P9WMJ7)
T1 construct: gene htpG; full-length wild type, recombinant in E. coli BL21(DE3), Ni-NTA and SEC, further ion exchange to remove nucleic acid; homodimer
Assay: biochemical
Type: binding

T1 sequence (P9WMJ7 whole entry): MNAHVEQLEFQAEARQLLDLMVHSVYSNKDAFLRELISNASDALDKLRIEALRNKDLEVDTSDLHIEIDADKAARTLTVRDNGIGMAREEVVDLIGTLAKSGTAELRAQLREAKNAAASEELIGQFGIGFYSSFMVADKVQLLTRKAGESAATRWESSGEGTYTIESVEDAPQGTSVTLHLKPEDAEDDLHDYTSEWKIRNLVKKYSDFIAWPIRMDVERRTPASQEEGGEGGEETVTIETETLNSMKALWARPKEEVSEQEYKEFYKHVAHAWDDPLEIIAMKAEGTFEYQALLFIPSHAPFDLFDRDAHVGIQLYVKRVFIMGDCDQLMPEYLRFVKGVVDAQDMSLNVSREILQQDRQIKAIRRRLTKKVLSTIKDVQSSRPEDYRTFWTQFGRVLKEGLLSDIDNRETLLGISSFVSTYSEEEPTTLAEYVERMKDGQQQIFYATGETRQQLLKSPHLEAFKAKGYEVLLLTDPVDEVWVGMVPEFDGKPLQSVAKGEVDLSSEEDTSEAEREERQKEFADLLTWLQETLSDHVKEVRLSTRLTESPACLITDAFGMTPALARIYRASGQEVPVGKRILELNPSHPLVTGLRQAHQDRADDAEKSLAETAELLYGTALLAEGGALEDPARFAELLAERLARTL

Nc1ncnc2c1ncn2[C@@H]1O[C@H](COP(=O)(O)OP(=O)(O)NP(=O)(O)O)[C@@H](O)[C@H]1O [AMP-PNP]
Kd: 45.4 µM

Nc1ncnc2c1ncn2[C@@H]1O[C@H](COP(=O)(O)OP(=O)(O)O)[C@@H](O)[C@H]1O [ADP]
Kd: 34 µM
